According to patent US7105567B2, “3-substituted urea derivatives and medicinal use thereof” (Mitsubishi Pharma Corporation, priority 2000, dated 2006):
Counter-ions that a name gives are not always drawn. Each block holds one compound with its values, some of them ahead of it.

Columns and labels:
[1] = tested on: C5a-Induced Decrease in Neutrophile in Cynomolgus Monkey; experiment: C5a-induced decrease in neutrophile in cynomolgus monkey; format: in vivo; details: 30 mg/kg orally, human C5a administered 4 hr later
Procedure: The action of the test compound on the decrease of neutrophile in peripheral blood, that occurs temporarily upon intravenous administration of human C5a to cynomolgus monkey, was evaluated. That is, the test compound was orally administered to cynomolgus monkey, and 4 hr later, human C5a was administered. The neutrophiles in peripheral blood were counted 2 min before and 1 min after administration of human C5a, and the rate (%) of decrease in neutrophiles in peripheral blood was calculated by the following formula. decrease rate (%)=100−[(neutrophiles in peripheral blood 1 min after administration of human C5a)/(neutrophiles in peripheral blood 2 min before administration of human C5a)]×100
Using the following formula, moreover, the inhibition rate (% inhibition) of decrease in neutrophiles in peripheral blood by the test compound was calculated. % inhibition=100−[(Test−Min)/(Max−Min)]×100 • Test: decrease rate of neutrophiles in peripheral blood when test compound and human C5a were administered • Min: decrease rate of neutrophiles in peripheral blood upon administration of administration medium for test compound and administration medium for human C5a • Max: decrease rate of neutrophiles in peripheral blood upon administration of administration medium for test compound and human C5a

[2] = tested on: C5a stimulated neutrophile; experiment: Action on increase of intracellular Ca2+ concentration of C5a stimulated neutrophile; format: cell-based, human
Procedure: A neutrophile fraction was separately taken from human peripheral venous blood using Lympholyte-poly (Cedarlane), and suspended in Hank's Balanced Salt Solution (HBSS, GIBCO BRL) supplemented with 1% fetal bovine serum (FBS). Then, Fura 2-AM (final concentration 5 μM, DOJINDO) was added to the neutrophile fraction (5×10^6 cells/mL), and the mixture was incubated at 37° C. for 40 min. The cells were washed by centrifugation and suspended to the concentration of 1×10^6 cells/mL. The intracellular Ca^2+ concentration was measured using a spectrophotofluorometer (CAF-110, JASCO Corporation), and calculated from the ratio (Ex340 value/Ex380 value) of fluorescent intensities at 500 nm upon excitation at 340 nm and 380 nm, the former being Ex340 value, the latter being Ex380 value. […] Then, Triton X-100 (final concentration 0.2%) was added and the cells were dissolved, and, sb2 value, which was the Ex 340 value then, and Rmax value, which was the Ex340 value/Ex380 value then, was measured. Then, EGTA (final concentration 3 mmol/L) was added and sf2 value, which was the Ex340 value then, and Rmin value, which was the Ex340/Ex380 value then, was measured. From these measurement results, the intracellular Ca^2+ concentration was calculated from the following formula. […]

[3] = tested on: C5a stimulated neutrophile; experiment: Production of reactive oxygen species in C5a-stimulated neutrophile; format: cell-based; details: human neutrophile, C5a 3 nmol/L, luminol luminescence; read-out: IC50 value, inhibition of production of reactive oxygen species in C5a stimulated neutrophile
Procedure: A neutrophile fraction was separately taken from human peripheral venous blood using Lympholyte-poly (Cedarlane), and suspended in Hank's Balanced Salt Solution (HBSS, GIBCO BRL) containing 1% fetal bovine serum (FBS) and 1 mmol/L of luminol (Wako Pure Chemical Industries, Ltd.). Reactive oxygen species was measured using a luminometer (MicroLumat, Berthold) for 96 well plate. That is, 1×10^5 cells/150 μL of neutrophile suspension and 25 μL of a test compound solution were added to a well, which was set in a MicroLumat set for 37° C. and stood for about 5 min. Then, 25 μL of C5a (final concentration 3 nmol/L) was added and luminescence produced by the reaction of the luminol and the reactive oxygen species was measured with the lapse of time for 15 min. The rate (% inhibition) of inhibition of the production of reactive oxygen species in C5a stimulated neutrophile by the test compound was calculated by the following formula, wherein the peak value of the production of reactive oxygen species derived by C5a without addition of the test compound is Max, the peak value of the production of reactive oxygen species without addition of the test compound and without C5a stimulation is Min, and the peak value of the production of reactive oxygen species derived by C5a with the addition of the test compound is Test. % inhibition=100−[(Test−Min)/(Max−Min)]×100 […]

[4] = tested on: C5a-stimulated neutrophile; experiment: Migrating ability of C5a-stimulated neutrophile; format: cell-based; details: 1.5 h; human neutrophile, C5a 100 pmol/L, chemotaxicell, 90 min; read-out: IC50 value, inhibition of migration of C5a-stimulated neutrophile
Procedure: A neutrophile fraction was separately taken from human peripheral venous blood using Lympholyte-poly (Cedarlane) and suspended in RPMI 1640 medium (GIBCO BRL) supplemented with 0.1% bovine serum albumin (BSA). To this neutrophile fraction (5×10^6 cells/mL) was added Calcein-AM (final concentration 5 μM, FUNAKOSHI), and the mixture was incubated at 37° C. for 30 min. The cells were washed by centrifugation and suspended to a concentration of 1×10^6 cells/mL. The migration was evaluated by adding neutrophiles to chemotaxicell (pore size: 3 μm, KURABO) and measuring the neutrophiles that migrated outside the chemotaxicell. First, 100 pmol/L of C5a solution was added to 24 well plate (500 μL/well) and chemotaxicell was set in the well. […] The fluorescent intensity of each well was measured by Cyto Fluor II (Ex: 485, Em: 530). The rate (% inhibition) of the inhibition of migration of C5a-stimulated neutrophile by the test compound was calculated by the following formula, wherein the fluorescence intensity of neutrophile that migrated by C5a stimulation without addition of the test compound is Max, the fluorescent intensity of neutrophile that migrated without addition of test compound and without C5a stimulation is Min, and the fluorescent intensity of neutrophile that migrated by C5a stimulation with the addition of the test compound is Test. % inhibition=100−[(Test−Min)/(Max−Min)]×100 […]

C5a receptor = biological target: T1, C5a receptor (Homo sapiens, UniProt P21730); experiment: C5a receptor binding assay ([125I]-human C5a, dcAMP-U-937 cells); details: dcAMP-U-937 cell, [125I]-C5a 200 pM, 4° C. for 2 hr; read-out: IC50 value, concentration at which binding of [125I]-human C5a is inhibited by 50%
T1 construct: U-937 cell was stimulated with 1 mM dibutyryl cyclic AMP (dcAMP, SIGMA) for 2 days to express the C5a receptor; endogenous in cells; host or cells: U-937 cells (human histiocytic lymphoma line) differentiated with 1 mM dibutyryl cAMP for 2 days
T1 sequence (P21730 1-350): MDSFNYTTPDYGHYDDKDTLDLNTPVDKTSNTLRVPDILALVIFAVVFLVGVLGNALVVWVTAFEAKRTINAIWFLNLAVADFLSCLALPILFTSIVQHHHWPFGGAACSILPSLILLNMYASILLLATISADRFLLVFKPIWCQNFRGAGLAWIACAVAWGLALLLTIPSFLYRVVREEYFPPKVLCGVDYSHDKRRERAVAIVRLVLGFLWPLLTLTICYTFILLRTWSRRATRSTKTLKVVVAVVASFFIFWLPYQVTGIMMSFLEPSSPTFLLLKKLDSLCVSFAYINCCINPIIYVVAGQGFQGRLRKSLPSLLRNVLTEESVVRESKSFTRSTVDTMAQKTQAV
Procedure: The C5a receptor binding inhibitory action of C5a and the test compound was evaluated by a receptor binding assay comprising reacting human cell line U-937 (human histiocytic lymphoma line), which expresses the C5a receptor, with [^125I]-human C5a (Amersham Pharmacia Biotech) in a MultiScreen (MILLIPORE). First, U-937 cell was stimulated with 1 mM dibutyryl cyclic AMP (dcAMP, SIGMA) for 2 days to express the C5a receptor (dcAMP-U-937 cell), and suspended in a binding buffer [50 mM HEPES, 1 mM CaCl2, 5 mM MgCl2, 0.5% bovine serum albumin (BSA, SIGMA), 0.02% NaN3 (pH 7.2)] and stored at −80° C. The binding assay was started by the addition of 50 μL of dcAMP-U-937 cell suspension dissolved immediately before use, 25 μL of a binding buffer or a test compound solution, and 25 μL of [^125I]-C5a solution (final concentration 200 pM), to each well of the MultiScreen. […] After drying the MultiScreen, the radioactivity on the filter was measured using a gamma counter. The rate (% inhibition) of inhibition of C5a binding by the test compound was calculated by the following formula using the count value obtained without addition of the test compound as Total, the count value obtained with addition of non-labeled C5a as Non, and the count value obtained with addition of the test compound as Test. % Inhibition=100−[(Test−Non)/(Total−Non)]×100 […]

Compound: CC(C)c1ccc(N(Cc2cnn(Cc3ccc(C(F)(F)F)cc3)c2)C(=O)Nc2c(C(C)C)cccc2C(C)C)cc1 [Example 61, N′-(2,6-diisopropylphenyl)-N-(4-isopropylphenyl)-N-{[1-(4-trifluoromethylbenzyl)pyrazol-4-yl]methyl}urea]
melting point: 134 to 135 °C

Compound: CC(C)c1ccc(N(Cc2ccc(Br)cc2)C(=O)Nc2c(C(C)C)cccc2C(C)C)cc1 [Example 53, N-[(4-bromophenyl)methyl]-N′-(2,6-diisopropylphenyl)-N-(4-isopropylphenyl)urea]
% inhibition of decrease in neutrophiles in peripheral blood [1]: 74%

Compound: CC(C)c1ccc(N(Cc2ccc(N(C)C)cc2)C(=O)Nc2c(C(C)C)cccc2C(C)C)cc1 (as salt: fumarate) [Example 34, N′-(2,6-diisopropylphenyl)-N-[(4-dimethylaminophenyl)methyl]-N-(4-isopropylphenyl)urea 9/10 fumarate]
melting point: 203 to 206 °C

Second part, led by results:

IC50 ([2]; human peripheral blood neutrophile, recombinant human C5a 100 pmol/L, Fura 2-AM, read-out: IC50 value, inhibition of increase in intracellular Ca2+ concentration of C5a-stimulated neutrophile): 5 nM
IC50 [3]: 10 nM
IC50 [4]: 100 nM
IC50 (C5a receptor): 100 nM
Compound: CC(C)c1ccc(N(Cc2ccc(N(C)C)cc2)C(=O)Nc2c(C(C)C)cccc2C(C)C)cc1 [Example 34, N′-(2,6-diisopropylphenyl)-N-[(4-dimethylaminophenyl)methyl]-N-(4-isopropylphenyl)urea 9/10 fumarate]
agonistic action (increase in intracellular Ca2+ induced by the compound) ([2]; compound 10 μmol/L, human neutrophile): not found

melting point: 124 to 125 °C
Compound: CC(C)c1cccc(C(C)C)c1NC(=O)N(Cc1ccc(N(C)C)cc1)c1ccc(F)cc1 [Example 1, N′-(2,6-diisopropylphenyl)-N-[(4-dimethylaminophenyl)methyl]-N-(4-fluorophenyl)urea]
